Results published in patent US11865176B2, “Compositions and methods of modulating anti-tumor immunity” (Dana-Farber Cancer Institute, Inc., priority 2016, dated 2024).

Tested on: PD-1-overexpressing Jurkat cells
Experiment: Small molecule screen: IL2 secretion (AlphaLISA) from stimulated PD-1-overexpressing Jurkat cells
Format: cell-based, human
Conditions: 3.3 μM compound; for Zscore_1 / Zscore_2: IL2 level, α-CD3/α-CD28/α-PD-1 beads; for Zscore_1: replicate 1; for Zscore_2: replicate 2; for Zscore_AVG: average of replicate Z scores
Method: PD-1-overexpressing Jurkat cells were plated at a concentration of 100,000 cells/well in a total volume of 80 μl. […] Dynabeads conjugated to α-CD3, α-CD28, and α-PD-1 antibodies were added in 20 for a final assay volume of 100 with a final compound concentration of 3.3 μM and an 8:1 bead:cell ratio. Beads were conjugated to α-CD3/α-CD28/control IgG and added to wells containing DMSO-treated cells as a positive control, while beads conjugated to α-CD3/α-CD28/α-PD1 were added to wells containing DMSO-treated cells as a negative control. Supernatants from each well were analyzed for IL2 levels by AlphaLISA (Perkin Elmers) according to the manufacturer's protocol. Average and standard deviation values were calculated from the PD-1 controls (DMSO-treated cells stimulated with α-CD3/α-CD28/α-PD-1 beads); hits were defined as compounds scoring at least 3 standard deviations from the mean of the controls.
In addition to known negative regulators of IL-2 production (e.g. glycogen synthase kinase-3α/β (GSK3α/β) (24,25)), this screen identified cyclin-dependent kinases 4 and 6 inhibitors (CDK4/6i) as top hits (Table 1).

## NS(=O)(=O)c1ccc(N/N=C2\C(=O)Nc3ccc(Br)cc32)cc1 [Cdk2 Inhibitor II]
  Zscore_1: −0.2096
  Zscore_2: −0.6424
  Zscore_AVG: −0.426

## CCN(CC)C(=O)c1ccc(Nc2nc(OCC3CCCCC3)c3[nH]cnc3n2)cc1 [Cdk2 Inhibitor IV, NU6140]
  Zscore_1: −4.843
  Zscore_2: −6.155
  Zscore_AVG: −5.499

## Cc1nc(N)sc1-c1ccnc(Nc2cccc([N+](=O)[O-])c2)n1 [Cdk2/9 Inhibitor]
  Zscore_1: −10.43
  Zscore_2: −10.59
  Zscore_AVG: −10.51

## COc1ccc(OC)c2c(=S)c3ccccc3[nH]c12 [Cdk4 Inhibitor II, 625987]
  Zscore_1: 0.5748
  Zscore_2: −1.274
  Zscore_AVG: −0.3496

## Cc1ccc(NC2=CC(=O)c3sc(C)nc3C2=O)cc1 [Cdk4 Inhibitor III]
  Zscore_1: −6.073
  Zscore_2: −8.107
  Zscore_AVG: −7.09

## O=C1NC(=O)c2c1c1c3ccccc3[nH]c1c1[nH]c3cc(Br)ccc3c21 [Cdk4 Inhibitor]
  Zscore_1: 7.007
  Zscore_2: 16.07
  Zscore_AVG: 11.54

## Nc1n[nH]c(N)c1N=Nc1ccc(O)cc1 [Cdk9 Inhibitor II]
  Zscore_1: −0.7951
  Zscore_2: 0.1385
  Zscore_AVG: −0.3283

## CC(C)c1nn(-c2c(Cl)cccc2Cl)c2nc(Cc3ccc(OCCO)cc3)[nH]c(=O)c12 [Cdk/Crk Inhibitor]
  Zscore_1: −10.43
  Zscore_2: −11.89
  Zscore_AVG: −11.16

## COc1ccc2c(c[n+](C)c3c4cc5c(cc4ccc23)OCO5)c1OC [Chelerythrine Chloride]
  Zscore_1: 0.1826
  Zscore_2: 0.07537
  Zscore_AVG: 0.129

## NC(=O)c1ccc2nc(-c3ccc(Oc4ccc(Cl)cc4)cc3)[nH]c2c1 [Chk2 Inhibitor II]
  Zscore_1: 2.673
  Zscore_2: 1.942
  Zscore_AVG: 2.307

## CC(C)n1cnc2c(Nc3cccc(Cl)c3)nc(NCCO)nc21 [Compound 52]
  Zscore_1: −1.412
  Zscore_2: −0.2643
  Zscore_AVG: −0.8381

## CCOc1cc2ncnc(Nc3cccc(Br)c3)c2cc1OCC [Compound 56]
  Zscore_1: −1.072
  Zscore_2: −2.222
  Zscore_AVG: −1.647

## O=c1cc(N2CCOCC2)nc2c3ccccc3ccn12 [Compound 401]
  Zscore_1: 2.829
  Zscore_2: 15.49
  Zscore_AVG: 9.162

## CN(C)c1ccc(/C=C2\C(=O)Nc3ccccc32)cc1 [DMBI]
  Zscore_1: −0.2169
  Zscore_2: 0.4405
  Zscore_AVG: 0.1118

## CC(=O)c1ccc(N2CCOCC2)cc1O [DNA-PK Inhibitor III]
  Zscore_1: 5.18
  Zscore_2: 6.23
  Zscore_AVG: 5.705

## O=c1cc(N2CCOCC2)oc2c1ccc1ccccc12 [DNA-PK Inhibitor II]
  Zscore_1: 0.06496
  Zscore_2: 0.1041
  Zscore_AVG: 0.08452

## O=C(c1ccccc1)c1ccc(N2CCOCC2)cc1O [DNA-PK Inhibitor V]
  Zscore_1: −2.22
  Zscore_2: −4.112
  Zscore_AVG: −3.166

## O=c1c2ccccc2[nH]c(=S)n1CCN1CCC(=C(c2ccc(F)cc2)c2ccc(F)cc2)CC1 [Diacylglycerol Kinase Inhibitor II]
  Zscore_1: −0.9879
  Zscore_2: 0.3398
  Zscore_AVG: −0.324

## O=C(Nc1cccc(Nc2cc(Nc3cccc(C(F)(F)F)c3)ncn2)c1)C1CC1 [EGFR Inhibitor]
  Zscore_1: 2.026
  Zscore_2: 1.568
  Zscore_AVG: 1.797

## COc1cc2ncnc(Nc3ccc(OCc4ccccc4)cc3)c2cc1OC [EGFR/ErbB-2 Inhibitor]
  Zscore_1: 0.09156
  Zscore_2: 4.015
  Zscore_AVG: 2.053

## CC#CC(=O)Nc1cc2c(Nc3ccc(F)c(Cl)c3)ncnc2cn1 [EGFR/ErbB-2/ErbB-4 Inhibitor]
  Zscore_1: 0.4572
  Zscore_2: 0.3338
  Zscore_AVG: 0.3955

## Nc1[nH]nc2nnc(-c3c(-c4ccccc4)nn4ccccc34)cc12 [ERK Inhibitor II, FR180204]
  Zscore_1: −2.073
  Zscore_2: −4.806
  Zscore_AVG: −3.439

## O=c1[nH][nH]c2nnc(-c3c(-c4ccccc4)nn4ccccc34)cc12 [ERK Inhibitor II, Negative Control]
  Zscore_1: −1.778
  Zscore_2: 1.052
  Zscore_AVG: −0.3634

## N/C(=N\[N+](=O)[O-])N/N=C\c1ccc(-c2cccc([N+](=O)[O-])c2)o1 [ERK Inhibitor III]
  Zscore_1: 0.9783
  Zscore_2: 2.555
  Zscore_AVG: 1.767

## O=C1c2ccccc2-[n+]2ccc3c([nH]c4ccccc43)c21 [Fascaplysin, synthetic]
  Zscore_1: −6.289
  Zscore_2: −8.222
  Zscore_AVG: −7.256

## c1ccc(-c2cnc(Nc3ccc(OCCN4CCCC4)cc3)s2)cc1 [Flt-3 Inhibitor III]
  Zscore_1: 1.171
  Zscore_2: 3.361
  Zscore_AVG: 2.266

## O=C(c1cc2cc(O)ccc2[nH]1)c1cc2cc(O)ccc2[nH]1 [Flt-3 Inhibitor II]
  Zscore_1: 1.536
  Zscore_2: 2.085
  Zscore_AVG: 1.81

## COc1ccc(C(=O)Nc2sc3c(c2C(N)=O)CCCC3)cc1OC [Flt-3 Inhibitor]
  Zscore_1: 1.516
  Zscore_2: 2.085
  Zscore_AVG: 1.801

## Cn1c2ccccc2c2c3c(c4c5ccccc5n(CCC#N)c4c21)CNC3=O [G? 6976]
  Zscore_1: −6.424
  Zscore_2: −4.191
  Zscore_AVG: −5.308

## COc1ccc2c(c1)c(C1=C(c3c[nH]c4ccccc34)C(=O)NC1=O)cn2CCCN(C)C [G? 6983]
  Zscore_1: −9.778
  Zscore_2: −9.075
  Zscore_AVG: −9.426

## CN1C(=O)/C(=C2\Nc3ccccc3\C2=N/O)c2ccc(Br)cc21 [GSK-3 Inhibitor IX, Control, MeBIO]
  Zscore_1: 1.104
  Zscore_2: 1.769
  Zscore_AVG: 1.437

## O=C1Nc2cc(Br)ccc2/C1=C1/Nc2ccccc2/C1=N\O [GSK-3 Inhibitor IX]
  Zscore_1: 25.07
  Zscore_2: 34.88
  Zscore_AVG: 29.98

## Cc1cc(Nc2nc(-c3ccccc3)nc3ccccc23)n[nH]1 [GSK-3 Inhibitor XIII]
  Zscore_1: −2.535
  Zscore_2: −3.925
  Zscore_AVG: −3.23

## CC(=O)O/N=C1/C(=C2/C(=O)Nc3cc(Br)ccc32)Nc2ccccc21 [GSK-3 Inhibitor X]
  Zscore_1: 28.58
  Zscore_2: 35.89
  Zscore_AVG: 32.23

## Ic1cccc(CSc2nnc(-c3ccncc3)o2)c1 [GSK-3b Inhibitor II]
  Zscore_1: −2.376
  Zscore_2: −0.4154
  Zscore_AVG: −1.396

## Cn1sc(=O)n(Cc2ccccc2)c1=O [GSK-3b Inhibitor I]
  Zscore_1: −1.327
  Zscore_2: −2.222
  Zscore_AVG: −1.774

## COc1ccc(CNC(=O)Nc2ncc([N+](=O)[O-])s2)cc1 [GSK-3b Inhibitor VIII]
  Zscore_1: 1.017
  Zscore_2: 0.5916
  Zscore_AVG: 0.8042

## Nc1cccc(-c2cc3c(Oc4cccc(O)c4)ncnc3[nH]2)c1 [GSK-3b Inhibitor XII, TWS119]
  Zscore_1: −1.059
  Zscore_2: −1.321
  Zscore_AVG: −1.19

## O=C1NC(=O)C(c2cn(CCCO)c3ncccc23)=C1c1cnccn1 [GSK-3b Inhibitor XI]
  Zscore_1: 5.72
  Zscore_2: 4.871
  Zscore_AVG: 5.296

## CNCCNS(=O)(=O)c1cccc2cnccc12.Cl.Cl [H-8, Dihydrochloride]
  Zscore_1: −1.014
  Zscore_2: −2.509
  Zscore_AVG: −1.761

## Cl.Cl.O=S(=O)(NCCNC/C=C/c1ccc(Br)cc1)c1cccc2cnccc12 [H-89, Dihydrochloride]
  Zscore_1: −3.268
  Zscore_2: −0.4334
  Zscore_AVG: −1.851

## Cl.Cl.N=C(N)NCCNS(=O)(=O)c1cccc2cnccc12 [HA 1004, Dihydrochloride]
  Zscore_1: 0.08457
  Zscore_2: −0.6711
  Zscore_AVG: −0.2933

## Cl.Cl.O=S(=O)(c1cccc2cnccc12)N1CCCNCC1 [HA 1077, Dihydrochloride Fasudil]
  Zscore_1: −1.883
  Zscore_2: −3.234
  Zscore_AVG: −2.559

## CO[C@H]1[C@@H](OC)C[C@H](C)[C@@H](OC)C2=CC(=O)C=C(NC(=O)/C(C)=C/C=C\[C@H](OC)[C@@H](OC(N)=O)/C(C)=C/[C@@H]1C)C2=O [Herbimycin A, Streptomyces sp.]
  Zscore_1: 5.643
  Zscore_2: 3.663
  Zscore_AVG: 4.653

## COc1cc(OC)c(C=C2C(O)=Nc3ccccc32)c(OC)c1 [IC261]
  Zscore_1: −0.7866
  Zscore_2: −1.136
  Zscore_AVG: −0.9616

## COc1ccc(Cl)cc1NC(=O)Nc1cc(C)nc2ccccc12 [IGF-1R Inhibitor II]
  Zscore_1: 0.516
  Zscore_2: −0.987
  Zscore_AVG: −0.2355

## O=C(Nc1cc(Cl)cc2c1[nH]c1cnccc12)c1cccnc1 [IKK Inhibitor X]
  Zscore_1: −4.959
  Zscore_2: −5.349
  Zscore_AVG: −5.154

## NC(=O)Nc1sc(-c2ccc(F)cc2)cc1C(N)=O [IKK-2 Inhibitor IV]
  Zscore_1: −1.558
  Zscore_2: −4.19
  Zscore_AVG: −2.874
